Source: patent US5424290A, “Biologically active peptides and uses therefor” (Magainin Pharmaceuticals Inc., priority 1992, dated 1995)
Residues, ends and D or L forms follow the SMILES beside them.

Assays:
Assay type in all cases: cell-based
[1] = tested on: E. coli ATCC 25922; assay: Minimal Inhibitory Concentration, microtiter broth dilution antibacterial assay; conditions: Mueller Hinton broth, 16-20 hours at 37° C., lowest concentration giving a clear well
Description: (§1) Table I, which follows, indicates the Minimal Inhibitory Concentration (MIC) in μg/ml of Peptides (SEQ ID NO:1) through (SEQ ID NO:4), (SEQ ID NO:6) through (SEQ ID NO:13), (SEQ ID NO:16), (SEQ ID NO:20), (SEQ ID NO:21) and (SEQ ID NO:23) against S. aureus strain ATCC 25923, P. aeruginosa strain ATCC 27853, E. coli strain 25922, and Candida albicans. The procedure for the antibacterial assay is based upon the guidelines of the National Committee for Clinical Laboratory Standards, Document M7-T2, Volume 8, No. 8, 1988. Stock solutions of the peptides hereinabove mentioned are prepared at a concentration of 512 μg/ml in sterile deionized distilled water and stored at […]. Each peptide is a C-terminal amide and may or may not be acetylated at the N-terminus. An acetyl group at the N-terminus is indicated by an X. The stock peptide solution is diluted in serial dilutions (1:2) down the wells of a microtiter plate so that the final concentrations of peptides in the wells are 0.25, 0.50, 1, 2, 4, 8, 16, 32, 64, 128, and 256 μg/ml. 1-5×10^5 CFUs/ml of either S. aureus ATCC 25923, E. coli ATCC 25922, P. aeruginosa ATCC 27853, or Candida albicans were added to the wells in full strength Mueller Hinton broth (BBL 11443) from a mid-log culture. The inoculum is standardized spectrophotometrically at 600 nm and is verified by colony counts. The plates are incubated for 16-20 hours at 37° C., and the minimal inhibitory concentration (MIC) for each peptide is determined. Minimal inhibitory concentration is defined as the lowest concentration of peptide which produces a clear well in the microtiter plate.

[2] = tested on: P. aeruginosa strain ATCC 27853; assay: as above; conditions: P. aeruginosa ATCC 27853; Mueller Hinton broth; 16-20 hours at 37° C.; lowest concentration giving a clear well
Description: as §1

[3] = tested on: S. aureus strain ATCC 25923; assay: as above; conditions: S. aureus ATCC 25923; Mueller Hinton broth; 16-20 hours at 37° C.; lowest concentration giving a clear well
Description: as §1

[4] = tested on: Candida albicans; assay: Minimal Inhibitory Concentration, microtiter broth dilution assay; conditions: Mueller Hinton broth, 16-20 hours at 37° C., lowest concentration giving a clear well
Description: as §1

Structure (SMILES) | Minimal Inhibitory Concentration E. coli [1] [µg/mL] | Minimal Inhibitory Concentration P. aeruginosa [2] [µg/mL] | Minimal Inhibitory Concentration S. aureus [3] [µg/mL] | Minimal Inhibitory Concentration C. albicans [4] [µg/mL]
CC[C@H](C)[C@H](N)C(=O)N[C@@H](CCCCN)C(=O)N[C@@H](CCCCN)C(=O)N[C@@H](Cc1ccccc1)C(=O)N[C@@H](CC(C)C)C(=O)N[C@@H](CCCCN)C(=O)N[C@@H](CCCCN)C(=O)N[C@@H](C)C(=O)N[C@@H](CCCCN)C(=O)N[C@@H](CCCCN)C(=O)N[C@@H](Cc1ccccc1)C(=O)NCC(=O)N[C@@H](CCCCN)C(=O)N[C@@H](CCCCN)C(=O)N[C@@H](Cc1ccccc1)C(=O)N[C@@H](CCCCN)C(=O)N[C@@H](CCCCN)C(=O)N[C@H](C(=O)N[C@@H](CC(C)C)C(=O)N[C@@H](CCCCN)C(=O)N[C@@H](CCCCN)C(N)=O)[C@@H](C)CC [(SEQ ID NO: 2)-NH2] (H-IKKFLKKAKKFGKKFKKILKK-NH2) | 16 | 8 | – | –
CC[C@H](C)[C@H](NC(=O)CN)C(=O)NCC(=O)N[C@@H](CCCCN)C(=O)N[C@H](C(=O)N[C@@H](CC(C)C)C(=O)N[C@@H](CCCCN)C(=O)N[C@@H](CCCCN)C(=O)N[C@@H](C)C(=O)N[C@@H](CCCCN)C(=O)N[C@@H](CCCCN)C(=O)N[C@H](C(=O)NCC(=O)N[C@@H](CCCCN)C(=O)N[C@@H](C)C(=O)N[C@H](C(=O)N[C@H](C(=O)N[C@@H](CCCCN)C(=O)N[C@H](C(=O)N[C@@H](CC(C)C)C(=O)N[C@@H](CCCCN)C(=O)N[C@@H](CCCCN)C(N)=O)[C@@H](C)CC)C(C)C)[C@@H](C)CC)[C@@H](C)CC)[C@@H](C)CC [(SEQ ID NO: 4)-NH2] (H-GIGKILKKAKKIGKAIVKILKK-NH2) | – | 4 | 16 | 64
CC[C@H](C)[C@H](NC(=O)CN)C(=O)NCC(=O)N[C@@H](CCCCN)C(=O)N[C@@H](Cc1ccccc1)C(=O)N[C@@H](CC(C)C)C(=O)N[C@@H](CCCCN)C(=O)N[C@@H](CCCCN)C(=O)N[C@@H](C)C(=O)N[C@@H](CCCCN)C(=O)N[C@@H](CCCCN)C(=O)N[C@@H](Cc1ccccc1)C(=O)NCC(=O)N[C@@H](CCCCN)C(=O)N[C@@H](C)C(=O)N[C@@H](Cc1ccccc1)C(=O)N[C@H](C(=O)N[C@@H](CCCCN)C(=O)N[C@H](C(=O)N[C@H](C(=O)N[C@@H](CCCCN)C(=O)N[C@@H](CCCCN)C(N)=O)C(C)C)[C@@H](C)CC)C(C)C [(SEQ ID NO: 6)-NH2] (H-GIGKFLKKAKKFGKAFVKIVKK-NH2) | 16 | 16 | 32 | –
CC[C@H](C)[C@H](NC(=O)CN)C(=O)NCC(=O)N[C@@H](CCCCN)C(=O)N[C@@H](Cc1ccccc1)C(=O)N[C@@H](CC(C)C)C(=O)N[C@@H](CCCCN)C(=O)N[C@@H](CCCCN)C(=O)N[C@@H](C)C(=O)N[C@@H](CCCCN)C(=O)N[C@@H](CCCCN)C(=O)N[C@@H](Cc1ccccc1)C(=O)NCC(=O)N[C@@H](CCCCN)C(=O)N[C@@H](C)C(=O)N[C@@H](Cc1ccccc1)C(=O)N[C@H](C(=O)N[C@@H](CCCCN)C(=O)N[C@H](C(=O)N[C@@H](CC(C)C)C(=O)N[C@@H](CCCCN)C(=O)N[C@@H](CCCCN)C(=O)N[C@@H](CCCNC(=N)N)C(N)=O)[C@@H](C)CC)C(C)C [(SEQ ID NO: 8)-NH2] (H-GIGKFLKKAKKFGKAFVKILKKR-NH2) | – | 4 | 16 | 64
CC[C@H](C)[C@H](NC(=O)CNC(=O)[C@H](CCCNC(=N)N)NC(=O)[C@@H](N)CCCNC(=N)N)C(=O)NCC(=O)N[C@@H](CCCCN)C(=O)N[C@@H](Cc1ccccc1)C(=O)N[C@@H](CC(C)C)C(=O)N[C@@H](CCCCN)C(=O)N[C@@H](CCCCN)C(=O)N[C@@H](C)C(=O)N[C@@H](CCCCN)C(=O)N[C@@H](CCCCN)C(=O)N[C@@H](Cc1ccccc1)C(=O)NCC(=O)N[C@@H](CCCCN)C(=O)N[C@@H](C)C(=O)N[C@@H](Cc1ccccc1)C(=O)N[C@H](C(=O)N[C@@H](CCCCN)C(=O)N[C@H](C(=O)N[C@@H](CC(C)C)C(=O)N[C@@H](CCCCN)C(=O)N[C@@H](CCCCN)C(=O)NCC(N)=O)[C@@H](C)CC)C(C)C [(SEQ ID NO: 13)-NH2] (H-RRGIGKFLKKAKKFGKAFVKILKKG-NH2) | – | 4 | – | 64
CC[C@H](C)[C@H](NC(=O)CN)C(=O)N[C@H](C(=O)NCC(=O)N[C@@H](CCCCN)C(=O)N[C@@H](Cc1ccccc1)C(=O)N[C@@H](CC(C)C)C(=O)N[C@@H](CCCCN)C(=O)N[C@@H](CCCCN)C(=O)N[C@@H](C)C(=O)N[C@@H](CCCCN)C(=O)N[C@@H](CCCCN)C(=O)N[C@@H](Cc1ccccc1)C(=O)NCC(=O)N[C@@H](CCCCN)C(=O)N[C@@H](C)C(=O)N[C@@H](Cc1ccccc1)C(=O)N[C@H](C(=O)N[C@@H](CCCCN)C(=O)N[C@H](C(=O)N[C@@H](CC(C)C)C(=O)N[C@@H](CCCCN)C(=O)N[C@@H](CCCCN)C(N)=O)[C@@H](C)CC)C(C)C)[C@@H](C)CC [(SEQ ID NO: 16)-NH2] (H-GIIGKFLKKAKKFGKAFVKILKK-NH2) | 8 | – | 4 | 64
CC[C@H](C)[C@H](NC(=O)[C@H](C)NC(=O)[C@H](CCCCN)NC(=O)CNC(=O)[C@@H](NC(=O)[C@H](CCCCN)NC(=O)[C@H](CCCCN)NC(=O)[C@H](C)NC(=O)[C@H](CCCCN)NC(=O)[C@H](CCCCN)NC(=O)[C@H](CC(C)C)NC(=O)[C@@H](NC(=O)[C@H](CCCCN)NC(=O)CNC(=O)[C@@H](N)Cc1ccccc1)[C@@H](C)CC)[C@@H](C)CC)C(=O)N[C@H](C(=O)N[C@@H](CCCCN)C(=O)N[C@@H](Cc1ccccc1)C(=O)N[C@@H](CC(C)C)C(=O)N[C@@H](CCCCN)C(=O)N[C@@H](CCCCN)C(N)=O)C(C)C [(SEQ ID NO: 23)-NH2] (H-FGKILKKAKKIGKAIVKFLKK-NH2) | 32 | – | 16 | 128
CC[C@H](C)[C@H](NC(C)=O)C(=O)NCC(=O)N[C@@H](CCCCN)C(=O)N[C@@H](Cc1ccccc1)C(=O)N[C@@H](CC(C)C)C(=O)N[C@@H](CCCCN)C(=O)N[C@@H](CCCCN)C(=O)N[C@@H](C)C(=O)N[C@@H](CCCCN)C(=O)N[C@@H](CCCCN)C(=O)N[C@@H](Cc1ccccc1)C(=O)NCC(=O)N[C@@H](CCCCN)C(=O)N[C@@H](C)C(=O)N[C@@H](Cc1ccccc1)C(=O)N[C@H](C(=O)N[C@@H](CCCCN)C(=O)N[C@H](C(=O)N[C@@H](CC(C)C)C(=O)N[C@@H](CCCCN)C(=O)N[C@@H](CCCCN)C(N)=O)[C@@H](C)CC)C(C)C [X- (SEQ ID NO: 1)-NH2] (Ac-IGKFLKKAKKFGKAFVKILKK-NH2) | 8 | – | 8 | 128
